Laboratory results taken from publication PMC3898838, “Design, Synthesis, and Biological Evaluation of an Allosteric Inhibitor of HSET that Targets Cancer Cells with Supernumerary Centrosomes” (Chemistry & Biology, 2013).

What was measured:
N1E-115 cells [1] = experiment: Immunofluorescence, mitotic spindle morphology; type: cell-based, mouse; conditions: 2.5 hr, control 30%
Description: Using IF, we next examined the mitotic phenotypes induced by CW069 in N1E-115 and NHDF cells, with a strong focus on centrosome numbers and mitotic spindle morphology. Antibodies against α-tubulin, CDK5RAP2, and DAPI were employed to visualize MTs, centrosomes, and DNA, respectively. We hypothesized that small-molecule inhibition of HSET would give rise to mitotic spindle defects similar to those reported after HSET knockdown by siRNA transfection ([Kwon et al., 2008]), and this was indeed the case. […] After treatment, the N1E-115 cells formed multipolar spindles due to a lack of centrosome clustering, consistent with HSET inhibition in cells with supernumerary centrosomes (Figure 4C).
[…] Prewarmed 4% paraformaldehyde in PBS was then added to each well to fix the cells before washing with PBS. Permeabilization and blocking was performed by incubating the slides with 1% BSA, 0.3% Triton X-100, 5% goat serum in PBS (PBS/B/0.3%T+5%GS) for 1 hr while shaking them at room temperature (RT). The slides were incubated with primary antibody solutions (mouse monoclonal anti-α-Tubulin [catalog number T9026; Sigma-Aldrich] and rabbit anti-CDK5RAP2 [catalog number A300-554A; Bethyl Laboratories]) at 4°C for 16 hr. […]

[2] = target: T1, full-length, N-terminal, 6His-tagged human HSET (Homo sapiens, UniProt Q9BW19); experiment: Differential scanning fluorimetry (DSF); type: binding; conditions: CW069 0.03125-1 mM in 4% DMSO
T1 sequence (Q9BW19 307-663 limits assumed): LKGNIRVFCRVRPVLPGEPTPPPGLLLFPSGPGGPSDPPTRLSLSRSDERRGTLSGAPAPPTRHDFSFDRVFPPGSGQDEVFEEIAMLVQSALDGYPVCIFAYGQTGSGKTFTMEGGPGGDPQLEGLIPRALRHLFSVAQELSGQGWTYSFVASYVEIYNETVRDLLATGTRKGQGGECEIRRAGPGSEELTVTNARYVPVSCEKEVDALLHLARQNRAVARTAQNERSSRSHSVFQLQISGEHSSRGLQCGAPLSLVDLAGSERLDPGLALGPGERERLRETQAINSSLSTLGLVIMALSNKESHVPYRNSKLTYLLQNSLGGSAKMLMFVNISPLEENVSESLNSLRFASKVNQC
Description: DSF is an inexpensive and rapid method for identifying ligands of purified proteins, and relies on the difference in protein unfolding temperature in the presence and absence of a small molecule ([Niesen et al., 2007]). The unfolding temperature is measured by the increase in fluorescence of a dye with particular affinity for the hydrophobic regions of proteins, which become exposed upon unfolding ([Niesen et al., 2007]). The difference in the transition midpoint, ΔTm, in the presence of a ligand is related to its binding affinity; however, this is not a direct measure of the binding coefficient and therefore was not used to calculate the affinity of CW069 for HSET ([Holdgate and Ward, 2005]).

N1E-115 cells [3] = experiment: SRB growth-inhibition assay; type: cell-based; conditions: Mus musculus, N1E-115, 72 hr, 0.3 μM to 400 μM
Description: (§1) We next assessed whether CW069 could selectively target proliferation in cancer cells. We used a combination of cell-growth-inhibition assays based on the Sulforhodamine-B (SRB) technique ([Vichai and Kirtikara, 2006]) and IncuCyte live-cell imaging. […] This further highlights that HSET inhibition, unlike that of KSP or CENP-E, provides a unique opportunity to selectively damage malignant cells without harming normal cells.
(§2) NHDF cells were obtained from PromoCell, and the N1E-115 and HeLa cells were obtained from ATCC/LGC Standards. The BT549, MCF-7 and MDA-MB-231 cells were kind gifts from the Caldas laboratory (CRUK Cambridge Institute) and were originally obtained from ATCC/LGC. All human cells were verified by STR genotyping and all tested negative for mycoplasma. Cells were cultured in Dulbecco’s modified Eagle’s medium (DMEM) supplemented with 10% fetal calf serum (FCS) at 37°C and 5% CO2. All compounds used in the Sulforhodamine B colorimetric (SRB) assay ([Vichai and Kirtikara, 2006]) were dissolved in DMSO and diluted in culture medium to a final concentration of 0.2% DMSO. For the SRB assay and live-cell imaging (using the IncuCyte Kinetic Live Cell Imaging System; Select Science), cells were seeded in 96-well plates at a density of 2,500 cells per well. […] Fluorescence was quantified using an Infinite 200 PRO plate-reader (Tecan) at a wavelength of 545 nm. […]

NHDF cells = experiment: SRB growth-inhibition assay; type: cell-based; conditions: Homo sapiens, 72 hr, 0.3 μM to 400 μM
Description: as §1, §2

[4] = test system: primary adult human bone marrow cells; experiment: Colony-formation (CFU-GM) assay; type: cell-based; conditions: 85 μM, 100 μM, 150 μM

maximum HSET ΔTm [2]: −8.0 °C | clonogenic capacity [4]: did not reduce the clonogenic capacity
SMILES: O=C(O)c1cc(I)ccc1NC(=O)[C@H](Cc1ccccc1)NCc1ccccc1 [CW069]
multipolar spindle formation (N1E-115 cells [1]; N1E-115, 100 μM): 98% | multipolar spindle formation (N1E-115 cells [1]; N1E-115, 200 μM): 86% | IC50 (N1E-115 cells [3]): 86 ± 10 µM | IC50 (NHDF cells): 181 ± 7 µM
